Earlier results as cited in publication PMC10046020, “In Silico Screening and Optimization of Cell-Penetrating Peptides Using Deep Learning Methods” (Biomolecules, 2023).
Read-outs that look alike come from different tables or passages of the source.

Settings: cited from earlier work
Description: Supplement biomolecules-13-00522-s001.zip/biomolecules-2162660_Supplementary Spreadsheets S1 Test Set.csv, table | column: class || Supplement biomolecules-13-00522-s001.zip/biomolecules-2162660_Supplementary Spreadsheets S2 Train Set.csv, table | column: class

[1] = Spreadsheet S1: 150 CPP and 150 non-CPP peptides collected from CellPPD, MLCPP, CPPsite 2.0, Lifetein and other publications

Substance | class (CPP / Non-CPP), Test Set | class (CPP / Non-CPP), Test Set [1]
KRKRWHW | CPP | 
GRKKRRQRRRG |  | CPP
KLFNGNEVCLDPKEKWVQKVVQIFLK |  | Non-CPP
RHVYHVLLSQ | CPP | 
GLRKRLRKFRNKIKEKGLRKRLRKFRNKIKEK |  | CPP
IAARIFLRSRQHIKLRHL |  | Non-CPP
WRWKKKKA | CPP | 
RHHLRHLRRHLRHLLRHLRHHLRHLRRHLRHLL |  | CPP
GRKKRRERRRPPERKC |  | CPP
ELFSPIAIAVLGSCVL |  | Non-CPP
KALKKLLAKWAAAKALL |  | CPP
ACRDRFRRCPADRRLCG |  | CPP
YGRKKRRQRRTALDWSWLQTE |  | CPP
ARRRRCSGSGSGCGSGSGSCGRRRR |  | CPP
VTQADVGSALANLKIPGVGS |  | Non-CPP
FLAGLIGGLAKML |  | Non-CPP
YTPNDITLNNSVALDPIDISIELNKAKSDLEESKE |  | Non-CPP
FLPLLAGVVANFLPQIICKIARKC |  | Non-CPP
ELVVLGKLYGRKKRRQRRR |  | CPP
IVMVGDGGVGKSAMTIQFIQSTFV |  | Non-CPP
CRKKRRQRRR |  | CPP
YGRKKRRQRRRPPLRKKKKKH |  | CPP
GDCLPHLKLCKENKGCCSKKCKRRGTNIEKRCR |  | CPP
NAATATRGRSAASRPTQRPRAPARSASRPRRPVQ |  | CPP
YARVRRRGPRRR | CPP | 

Substance | class (CPP / Non-CPP), Test Set | class (CPP / Non-CPP), Test Set [1]
TERQIKIWFQNRRMK |  | Non-CPP
GLKKLAELAHKLLKLGC |  | CPP
MAPTKRKGSCPGAAPNKKP |  | CPP
WRWRWRWRW | CPP | 
ADCKNFFWKTFTSC |  | Non-CPP
KKRTLRKNDRKKRC |  | CPP
KKLSECLKRIGDELDS |  | Non-CPP
KIWFMNRRMK | Non-CPP | 
GRKKHRQPPQC |  | Non-CPP
IAARIKLRSRQHIKLRHL |  | Non-CPP
VIVYIVVKDASSK | Non-CPP | 
DWLKAFYDKVAEKLKEAF |  | CPP
KMTRAQRRAAARRNRWTAR |  | CPP
MDMVAIDDQDYIMCHF |  | Non-CPP
TTPFTIRGPLGNQGRGNPVR |  | Non-CPP
RRRRWWWW | CPP | 
RPKRPTTLNLFPQVPRSQDT |  | CPP
KGRKKRRQRRRPPQ |  | CPP
GWTNLSAGCLLGPPPGFSPFR |  | Non-CPP
ARRRCSDRFRNCPADEALCGRRR |  | CPP
AHALCLTERQIKSNRRMKWKKEN |  | Non-CPP
DKLGVWFIWANNASVFHAYHLKC |  | Non-CPP
VGALAVVVWLWLWLWAGSGPKKKRKVC |  | CPP
GRCTKSIPPICWPD |  | CPP
REDEDEIEW | CPP | 

Substance | class (CPP / Non-CPP), Test Set | class (CPP / Non-CPP), Test Set [1]
MNASQVAGEEAPQSGHSVKVVLVGDGGCGKTSLMMVF |  | Non-CPP
KKKKKKKKK |  | CPP
KFFKFFKFFK | CPP | 
IDLNITMLEDHEFVP |  | Non-CPP
KKLSLCLKRIGDELDS |  | Non-CPP
HDEFERHAEGTFTSDVFSYLEGQAAKEFIAWLVKGR |  | Non-CPP
GGVCPKILRRCRRDSDCPGACICRGNGYCGSGSD |  | CPP
QIMISA | Non-CPP | 
GRKKRRQ |  | CPP
RGGRLCYCRRRFCVCVGR |  | CPP
GFFTLIKAANKLINKTVNKEAGKGGLEIMA |  | Non-CPP
FDPYALSEHDEERPQNVQSKSRTAELQAEIDDTVGI |  | Non-CPP
KNLRRIIRKGIHIIKKYF |  | CPP
FLPVLAGIAAKVVPALFCKITKKC |  | Non-CPP
INWLKLGKAIIDAL |  | Non-CPP
YRDRFAFQPH | CPP | 
YMVGLCDYHILYSGWGQMDWHPEPHFYAWMYR |  | Non-CPP
RLHRRLHRRLHRLHRRLHRLHRRLHRRLH |  | CPP
YGRGGRRGRRR | CPP | 
CPLDQFECGGDEPG |  | Non-CPP
KKLSECLKRIGVELDS |  | Non-CPP
GNGEQREMAVSRLRDCLDRQA |  | CPP
SDPSVPLRPEEDELIDQ |  | Non-CPP
LLKTTELLKTTELLKTTS |  | Non-CPP
MVMEMRNF | Non-CPP | 

Substance | class (CPP / Non-CPP), Test Set | class (CPP / Non-CPP), Test Set [1]
APVTGAHMAYVDYWVPCQFTECSGEYVTEEYRKA |  | Non-CPP
PVVHLTLRQAGDDFGR |  | Non-CPP
EGGGPQWAVGHFM | Non-CPP | 
YGFMELFDDVTAIFSIDHCQEEYYEQMANNVM |  | Non-CPP
ILRRRIRKQAHFHSK |  | Non-CPP
WELVVLGYGRKKRRQRRR |  | CPP
KWRRKLKKLRPKKKRKV |  | CPP
PVVHLTLRQAGDDFSR |  | Non-CPP
AEQNPIYWARYADWLFTTPLLLLDLALLVDADEGT |  | CPP
SARRRRRREW | CPP | 
RRRRRRRHHH | CPP | 
NAGGWFSSWFFSNTANEDQDDMLPSTSAAAGETNYARN |  | Non-CPP
VKKKKIKREIKIAAQRYGRELRRMADEFHV |  | CPP
GWTLNSAGYLNGKFLPLILRKIVTAL |  | Non-CPP
ARRRRCSDRFRNCPADEALCGRRRR |  | CPP
KLDFLGEGQFATVYKARDKNT |  | Non-CPP
KLAAKLALKALKAA |  | Non-CPP
EMCILIDENDNKIGADTKKNCHLNENIDKGLLHRA |  | Non-CPP
NTCTWLKY | CPP | 
ACRGRGRRCGSGRRSCG |  | CPP
QWGYGGMPYGGYGGMGGYGMGGYGMGY |  | Non-CPP
PLDGMCDKGNYTQ | Non-CPP | 
HDEFERHAEGEFTSDVSSYLEGQAAKEFIAWLVKGR |  | Non-CPP
KETWWETWWTEWSQPKKRKV |  | CPP
LAQLLAQLLAQLGGGGRRRRRRRRR |  | CPP

Substance | class (CPP / Non-CPP), Test Set | class (CPP / Non-CPP), Test Set [1]
DVVRVWFCNRRQKGKR |  | CPP
FQAYPCITAYKVMYID |  | Non-CPP
TWLKYH | CPP | 
FKCRRWQWRMKKLGAPSITCVRRAF |  | CPP
ICITRRSICMVTCNKEWPQNRNAHTFLI |  | Non-CPP
YTMQMLLEIHRKNW |  | Non-CPP
LKKLAELAHKLLKLG |  | CPP
TAQVFFNVYKKAKPN |  | Non-CPP
AGYLLGHINLHHLAHLHHIL |  | CPP
VVLYKYRCYKVI | CPP | 
YTFGLKTSFNVQ | CPP | 
GAPRLVLLFSGKRKSGKDFVTEA |  | Non-CPP
RRRRRRRRGC | CPP | 
TRSSRAGLQFPVGRVIIRLLRK |  | CPP
LLKHTALLKTTALLKTTA |  | Non-CPP
GWTNLSAGYLLGPPPGFSPFR |  | Non-CPP
NYQRRCKNQN | CPP | 
HAQKQLSKTSWDFIEGEADDGITYSENIAAFKRIRLR |  | Non-CPP
GSSGMIPFPRV | Non-CPP | 
LRKLRKRLLR | CPP | 
HSDGIFTDSYSRYRKQMAVKKYLAAVLGKRYKQRVKNK |  | CPP
RLLRLLRLL | CPP | 
WELVVAYGRKKRRQRRR |  | CPP
RRRRRHHH | CPP | 
FLPLFLPKIICVITKKC |  | Non-CPP

Substance | class (CPP / Non-CPP), Test Set | class (CPP / Non-CPP), Test Set [1]
LNSAGYLLGKPKALAALAK |  | Non-CPP
IHSHWFVMVLKGKAARQRDDLWTHPCFPS |  | Non-CPP
TRTSRGWHTTDLKYN |  | Non-CPP
GHHSLKITDDPFDVPFPINDDHDS |  | Non-CPP
LLKTTALLKTTALHKTTA |  | Non-CPP
LLGDFFRKSKEKIGKEFKRIVQRIKDFLRNLVPRTES |  | CPP
KKKKKKKKLLLLLLLL |  | Non-CPP
CRGDKGDPC | CPP | 
LKKLLKLLKKLLKLAG |  | CPP
KDCERRFSRSDQLKRHQRRHTGVKPFQK |  | CPP
FITKALGISYGRKKRRQS |  | Non-CPP
KLAKLAKKLAKLAK |  | CPP
ACRGRGRGCGRGRGRCG |  | CPP
VATIKSVSFYTRK | Non-CPP | 
RRRRRRRRC | CPP | 
CKYGRKKRRQRRR |  | CPP
YGDCLPHLKLCKENKDCCSKKCKRRGTNIEKRCR |  | CPP
LRHHLRHLLRHLRHLLRHLRHHLRHLLRH |  | CPP
YGRKKRRQRRRGC |  | CPP
RKKNPNCRR | CPP | 
CGGGRRRRRRRRRLLLL |  | CPP
